Values quoted from earlier work, collected in US20050065088A1, “Pharmaceutical compositions and methods comprising combinations of 2-alkylidene-19-nor-vitamin D derivatives and parathyroid hormone” (Pfizer Inc., priority 2003, published 2005).

Tests used:
[1] = system: intestinal calcium transport; conditions: chronic dosing 7 days, 130 or 260 pmol dose (1,25-(OH)2D3 only 260 pmol/day)
HL-60 cells = conditions: result in words
[2] = system: serum calcium (bone calcium mobilization); conditions: for selectivity bone calcium mobilization versus intestinal calcium transport, in words / bone calcium mobilization, result in words: chronic dosing 7 days; for bone calcium mobilization, result in words: 130 and 260 pmol/day

C=C1/C(=C\C=C2/CCC[C@]3(C)[C@@H]([C@H](C)CCCC(C)(C)O)CC[C@@H]23)C[C@@H](O)C[C@@H]1O [1,25-(OH)2D3, 1,25-dihydroxyvitamin D3, reference compound]
intestinal calcium transport, result in words [1]: expected elevation

C=C1[C@H](O)CC(=C/C=C2\CCC[C@]3(C)[C@@H]([C@H](C)CCCC(C)(C)O)CC[C@@H]23)C[C@H]1O [2-Methylene-19-Nor-1,25-(OH)2D3, 1α,25-dihydroxy-2-methylene-19-nor-vitamin D3]
inducing differentiation of HL-60 cells to the monocyte (HL-60 cells): activity similar to 1,25-(OH)2D3
intestinal calcium transport, result in words [1]: no intestinal calcium transport activity
selectivity bone calcium mobilization versus intestinal calcium transport, in words [2]: selective for the mobilization of calcium from bone
bone calcium mobilization, result in words [2]: extremely strong bone calcium mobilization
bone calcium mobilization activity relative to 1,25-(OH)2D3 ([2]; chronic dosing, 7 days, 'likely to be'): 10-100 times

C=C1[C@H](O)CC(=C/C=C2\CCC[C@]3(C)[C@@H]([C@@H](C)CCCC(C)(C)O)CC[C@@H]23)C[C@H]1O [2-Methylene-19-Nor-20S-1,25-(OH)2D3, (20S)-1α,25-dihydroxy-2-methylene-19-nor-vitamin D3]
inducing differentiation of HL-60 cells to the monocyte (HL-60 cells): extremely potent
intestinal calcium transport, result in words [1]: no significant change
activity on bone calcium mobilization (serum calcium) relative to the native hormone ([2]; 130 pmol/day, 7 days, 'at least 10 and possible 100-1,000 times'): at least 10 times
selectivity bone calcium mobilization versus intestinal calcium transport, in words [2]: selective for the mobilization of calcium from bone
bone calcium mobilization, result in words [2]: most potent compound tested
